# Reference: ChEMBL document CHEMBL1142821, “Identification of potent type I MetAPs inhibitors by simple bioisosteric replacement. Part 2: SAR studies of 5-heteroalkyl substituted TCAT derivatives” (Bioorg Med Chem Lett, 2005)
# Columns and labels:
# [1] = molecular target: T1, Methionine aminopeptidase (Escherichia coli K-12, UniProt P0AE18); experiment: Inhibitory concentration against EcMetAP1 enzyme activity
# T1 sequence (P0AE18 whole entry): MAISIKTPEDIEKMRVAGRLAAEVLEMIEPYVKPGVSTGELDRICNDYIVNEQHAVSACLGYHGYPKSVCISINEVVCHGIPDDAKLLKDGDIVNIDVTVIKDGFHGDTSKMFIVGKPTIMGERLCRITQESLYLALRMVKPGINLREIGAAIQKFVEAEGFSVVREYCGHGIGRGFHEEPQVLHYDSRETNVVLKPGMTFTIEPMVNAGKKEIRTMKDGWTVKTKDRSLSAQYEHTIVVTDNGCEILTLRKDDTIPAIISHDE
# [2] = molecular target: T2, Methionine aminopeptidase 1 (Saccharomyces cerevisiae S288c, UniProt Q01662); experiment: Inhibitory concentration against ScMetAP1 enzyme activity
# T2 sequence (Q01662 whole entry): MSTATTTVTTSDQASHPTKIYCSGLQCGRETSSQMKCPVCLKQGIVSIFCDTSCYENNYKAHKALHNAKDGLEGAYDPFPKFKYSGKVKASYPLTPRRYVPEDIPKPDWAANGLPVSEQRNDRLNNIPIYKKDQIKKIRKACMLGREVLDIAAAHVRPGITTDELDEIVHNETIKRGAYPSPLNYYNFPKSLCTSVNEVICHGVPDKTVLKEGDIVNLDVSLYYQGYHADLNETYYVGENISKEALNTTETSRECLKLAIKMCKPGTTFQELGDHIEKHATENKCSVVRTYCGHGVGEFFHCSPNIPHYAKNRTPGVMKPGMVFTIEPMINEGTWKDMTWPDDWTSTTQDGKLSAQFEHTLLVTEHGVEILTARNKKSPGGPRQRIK
Compound,IC50 [1],IC50 [2]
CO[C@H](Cc1scnc1C(=O)Nc1nccs1)c1ccccc1,36 nM,450 nM
O=C(Nc1nccs1)c1ncsc1CN1CCCCC1,10 nM,75 nM
O=C(Nc1nccs1)c1ncsc1CN1CCCC1,25 nM,350 nM
COC(Cc1scnc1C(=O)Nc1nccs1)c1ccccc1 (centres undefined),43 nM,440 nM
COC(C)(C)Cc1scnc1C(=O)Nc1nccs1,69 nM,3210 nM
CO[C@@H](Cc1scnc1C(=O)Nc1nccs1)c1ccccc1,66 nM,450 nM
COC(Cc1scnc1C(=O)Nc1nccs1)c1ccccc1F (centres undefined),34 nM,270 nM
CCCCC(Cc1scnc1C(=O)Nc1nccs1)OC (centres undefined),100 nM,450 nM
O=C(OCCc1scnc1C(=O)Nc1nccs1)c1ccccc1,41 nM,3080 nM
O=C(Nc1nccs1)c1ncsc1CCO,470 nM,10400 nM
O=C(Nc1nccs1)c1ncsc1CCOC(=O)C1CCCC1,140 nM,800 nM
Cc1ccc(S(=O)(=O)OCCc2scnc2C(=O)Nc2nccs2)cc1,1530 nM,3720 nM
CCOC(Cc1scnc1C(=O)Nc1nccs1)C(C)C (centres undefined),28 nM,150 nM
COC(Cc1scnc1C(=O)Nc1nccs1)c1ccccc1Cl (centres undefined),170 nM,230 nM
COC(Cc1scnc1C(=O)Nc1nccs1)c1cccc(Cl)c1 (centres undefined),90 nM,520 nM
O=C(Nc1nccs1)c1ncsc1CN1CCOCC1,55 nM,1760 nM

Compound,IC50 [1],IC50 [2]
COC(Cc1scnc1C(=O)Nc1nccs1)c1ccc(F)cc1 (centres undefined),57 nM,390 nM
O=C(COCc1ccccc1)OCCc1scnc1C(=O)Nc1nccs1,130 nM,550 nM
CC(=O)OCCc1scnc1C(=O)Nc1nccs1,310 nM,17900 nM
COc1ccccc1C(Cc1scnc1C(=O)Nc1nccs1)OC (centres undefined),35 nM,570 nM
O=C(Nc1nccs1)c1ncsc1CCOCc1ccccc1,90 nM,4250 nM
COCc1scnc1C(=O)Nc1nccs1,97 nM,7530 nM
COC(Cc1scnc1C(=O)Nc1nccs1)C1CCCCC1 (centres undefined),54 nM,400 nM
COc1cc(C(=O)OCCc2scnc2C(=O)Nc2nccs2)cc(OC)c1OC,160 nM,1560 nM
COc1ccc(C(Cc2scnc2C(=O)Nc2nccs2)OC)cc1 (centres undefined),23 nM,310 nM
COC(c1ccccc1)c1scnc1C(=O)Nc1nccs1 (centres undefined),61 nM,750 nM
COC(Cc1scnc1C(=O)Nc1nccs1)CC(C)C (centres undefined),90 nM,500 nM
COC(Cc1scnc1C(=O)Nc1nccs1)c1ccc(Cl)cc1 (centres undefined),33 nM,570 nM
COCCc1scnc1C(=O)Nc1nccs1,150 nM,6430 nM
O=C(Nc1nccs1)c1ncsc1CCN1CCCCC1,45 nM,410 nM
COC(Cc1scnc1C(=O)Nc1nccs1)c1cccc(F)c1 (centres undefined),37 nM,340 nM
O=C(Cc1ccccc1)OCCc1scnc1C(=O)Nc1nccs1,33 nM,6040 nM
